Measured values: EPA's ToxRefDB 2

Columns and labels:
[1] = test system: rat; details: Multigenerational reproductive toxicity study, sprague dawley, Oral, Feed, dose end: 3 generation
[2] = test system: rabbit; details: Prenatal developmental toxicity study, new zealand white, Oral, Gavage/Intubation, dose end: 19 GD
[3] = test system: rat; details: Multigenerational reproductive toxicity study, other, Oral, Feed, dose end: 2 generation
[4] = test system: dog; details: Chronic toxicity, beagle, Oral, Feed, dose end: 12 month, group: systemic
[5] = test system: mouse; details: Carcinogenicity; cd1; Oral; Feed; dose end: 24 month; group: systemic; systemic / hematology / methemoglobin / methemoglobin + systemic / in life observation / body weight / body weight + systemic / in life …
[6] = test system: rat; details: Prenatal developmental toxicity study, other, Oral, Feed, dose end: 15 GD
[7] = test system: rat; details: Combined chronic toxicity/carcinogenicity; sprague dawley; Oral; Feed; dose end: 2 year; group: systemic; systemic / in life observation / body weight / body weight + systemic / in life observation / body weight / body weight gain + systemic / …
[8] = test system: mouse; details: Combined chronic toxicity/carcinogenicity; b6c3f1; Oral; Gavage/Intubation; dose end: 2 year; group: systemic; systemic / pathology microscopic / liver / cytomegaly + systemic / pathology microscopic / liver / hyperplasia + systemic / pathology …
[9] = test system: rat; details: Subchronic oral toxicity in rodents, fischer, Gavage/Intubation, dose end: 13 week, group: systemic
[10] = test system: rat; details: Combined chronic toxicity/carcinogenicity, fischer, Oral, Gavage/Intubation, dose end: 2 year, group: systemic
[11] = test system: mouse; details: Subchronic oral toxicity in rodents, b6c3f1, Gavage/Intubation, dose end: 13 week, group: systemic
[12] = group: offspring, developmental / offspring survival late / viability index / viability index + systemic / in life observation / body weight / offspring (pup…
[13] = group: parental, systemic / in life observation / body weight / body weight + systemic / in life observation / body weight / body weight gain
[14] = group: reproductive, reproductive / reproductive performance / fertility / fertility
[15] = group: developmental, developmental / developmental malformation / bone / [other] + developmental / developmental malformation / bone / hole(s) + developmental / …
[16] = group: maternal, systemic / in life observation / body weight / body weight gain
[17] = group: maternal, systemic / in life observation / body weight / body weight gain + reproductive / reproductive performance / aborted / aborted + systemic / …
[18] = group: offspring, systemic / in life observation / body weight / offspring (pup) weight + developmental / developmental malformation / diaphragm / hernia + …
[19] = group: parental, systemic / in life observation / body weight / body weight gain + systemic / in life observation / body weight / body weight + systemic / in…
[20] = group: reproductive, reproductive / offspring survival early / birth index / live birth index
[21] = systemic / hematology / methemoglobin / methemoglobin + systemic / hematology / sulphemoglobin / sulphemoglobin
[22] = systemic / hematology / methemoglobin / methemoglobin + systemic / hematology / sulphemoglobin / sulphemoglobin + systemic / clinical …
[23] = group: developmental, developmental / developmental malformation / bone / bipartite ossification + developmental / developmental malformation / bone / delayed …
[24] = group: maternal, systemic / in life observation / body weight / body weight + systemic / in life observation / food consumption / food consumption + …
[25] = systemic / in life observation / body weight / body weight + systemic / in life observation / clinical signs / labored respiration + …
[26] = systemic / in life observation / body weight / body weight + systemic / organ weight / kidney / absolute + systemic / organ weight / kidney…
[27] = systemic / pathology microscopic / kidney / pigmentation + systemic / pathology microscopic / nose / pigmentation
[28] = systemic / in life observation / body weight / body weight gain + systemic / in life observation / clinical signs / prostration + systemic…
[29] = systemic / in life observation / body weight / body weight gain + systemic / organ weight / liver / absolute + systemic / organ weight / …

CON(C)C(=O)Nc1ccc(Cl)c(Cl)c1 [Linuron]
LEL [1, 12]: 44 mg/kg/day | LOAEL [1, 12]: 44 mg/kg/day | NEL [1, 12]: 9 mg/kg/day | NOAEL [1, 12]: 9 mg/kg/day | LEL ([1]; group: parental, systemic / in life observation / body weight / body weight): 9 mg/kg/day | LOAEL ([1]; group: parental, systemic / in life observation / body weight / body weight + systemic / hematology / erythrocyte (rbc) count differential / erythrocyte (rbc…): 10 mg/kg/day | NEL [1, 13]: 2 mg/kg/day | NOAEL [1, 13]: 2 mg/kg/day | LEL [1, 14]: 44 mg/kg/day | LOAEL [1, 14]: 44 mg/kg/day | NEL [1, 14]: 9 mg/kg/day | NOAEL [1, 14]: 9 mg/kg/day | LEL [2, 15]: 100 mg/kg/day | LOAEL [2, 15]: 100 mg/kg/day | NEL [2, 15]: 25 mg/kg/day | NOAEL [2, 15]: 25 mg/kg/day | LEL [2, 16]: 25 mg/kg/day | LOAEL [2, 16]: 25 mg/kg/day | NEL [2, 17]: 5 mg/kg/day | NOAEL [2, 17]: 5 mg/kg/day | LEL ([3]; group: offspring, systemic / in life observation / body weight / offspring (pup) weight): 7.77 mg/kg/day | LOAEL [3, 18]: > 54 mg/kg/day | NEL [3, 18]: 0.948 mg/kg/day | NOAEL [3, 18]: ≥ 54 mg/kg/day | LOAEL ([3]; group: parental, systemic / in life observation / body weight / body weight gain): 5.83 mg/kg/day | NEL [3, 19]: 0.736 mg/kg/day | NOAEL [3, 19]: 0.736 mg/kg/day | LEL ([3]; group: parental, systemic / in life observation / body weight / body weight gain + systemic / in life observation / food consumption / food consumption): 5.83 mg/kg/day | LEL [3, 20]: 54 mg/kg/day | LOAEL [3, 20]: > 54 mg/kg/day | NEL [3, 20]: 7.77 mg/kg/day | NOAEL [3, 20]: ≥ 54 mg/kg/day | LEL [4, 21]: 3.49 mg/kg/day | LOAEL [4, 21]: 3.49 mg/kg/day | NEL [4, 22]: 0.77 mg/kg/day | NOAEL [4, 22]: 0.77 mg/kg/day | LEL [5]: 261 mg/kg/day | LOAEL [5]: 261 mg/kg/day | NEL [5]: 23 mg/kg/day | NOAEL [5]: 23 mg/kg/day | LEL [6, 23]: 50 mg/kg/day | LOAEL [6, 23]: 50 mg/kg/day | NEL [6, 23]: 12 mg/kg/day | NOAEL [6, 23]: 12 mg/kg/day | LOAEL ([6]; group: maternal, systemic / in life observation / body weight / body weight + systemic / in life observation / food consumption / food consumption): 50 mg/kg/day | LEL [6, 24]: 50 mg/kg/day | NEL [6, 24]: 12 mg/kg/day | NOAEL [6, 24]: 12 mg/kg/day | LEL [7]: 5.11 mg/kg/day | LOAEL [7]: 5.11 mg/kg/day | NEL [7]: 2.09 mg/kg/day | NOAEL [7]: 2.09 mg/kg/day

COc1c(Cl)c(Cl)c(Cl)c(Cl)c1Cl [Pentachloroanisole]
LEL [8]: 20 mg/kg/day | LOAEL [8]: 20 mg/kg/day | NEL [8]: < 20 mg/kg/day | NOAEL [8]: < 20 mg/kg/day | LOAEL [9, 25]: > 180 mg/kg/day | NOAEL [9, 25]: ≥ 180 mg/kg/day | LEL [9, 26]: 40 mg/kg/day | NEL [9, 26]: < 40 mg/kg/day | LOAEL ([10]; systemic / in life observation / body weight / body weight + systemic / pathology microscopic / adrenal gland / hyperplasia): 40 mg/kg/day | NOAEL ([10]; systemic / in life observation / body weight / body weight + systemic / pathology microscopic / adrenal gland / hyperplasia + systemic / …): 20 mg/kg/day | LEL [10, 27]: 10 mg/kg/day | NEL [10, 27]: < 10 mg/kg/day | LOAEL [11, 28]: > 180 mg/kg/day | NOAEL [11, 28]: ≥ 180 mg/kg/day | LEL [11, 29]: 40 mg/kg/day | NEL [11, 29]: < 40 mg/kg/day
